According to patent US9777005B2 (Takeda Pharmaceutical Company Limited, priority 2012, dated 2017):

Target: T1, human M1 receptor (hCHRM1) (Homo sapiens, UniProt P11229)
T1 construct: expressed in transfected cells; host or cells: CHO-K1
T1 sequence (P11229 1-460): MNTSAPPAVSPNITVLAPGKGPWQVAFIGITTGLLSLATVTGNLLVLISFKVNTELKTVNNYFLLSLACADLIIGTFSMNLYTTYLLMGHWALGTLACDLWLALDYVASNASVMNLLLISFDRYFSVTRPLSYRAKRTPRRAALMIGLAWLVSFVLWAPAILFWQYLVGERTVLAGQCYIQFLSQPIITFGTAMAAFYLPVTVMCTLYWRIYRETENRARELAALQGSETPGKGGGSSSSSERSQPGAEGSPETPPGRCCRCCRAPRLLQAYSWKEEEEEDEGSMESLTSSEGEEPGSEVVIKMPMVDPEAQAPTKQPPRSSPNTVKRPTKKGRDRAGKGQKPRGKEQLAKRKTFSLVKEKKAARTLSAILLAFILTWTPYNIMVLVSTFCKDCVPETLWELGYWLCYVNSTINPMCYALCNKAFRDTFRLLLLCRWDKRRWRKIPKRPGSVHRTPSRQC
Assay: Measurement of M1 receptor positive allosteric modulator (M1PAM) activity, calcium fluorescence (FLIPRtetra) in CHO-K1 cells in the presence of acetylcholine at EC20
Format: cell-based
Conditions: in the presence of acetylcholine at EC20 (final 0.6 nM), CHO-K1 cells expressing hCHRM1; for EC50: inflection point of M1PAM activity, read-out: IP value; for activity (%) at 10 μM: test compound 10 μM
Procedure, shortened: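 PAM activity was measured as calcium flux by FLIPRtetra over 1 min after co-addition of compound and EC20 acetylcholine (final 0.6 nM) to Fluo-4-loaded hCHRM1 CHO-K1 cells. The response was scaled between DMSO (0%) and 1 μM acetylcholine (100%), and the inflection point of the concentration curve gives the IP value.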

Row | EC50 [nM] | activity (%) at 10 μM [%] | SMILES
1 | 11 | 89 | Cn1ccc(-c2ccc(CN3Cc4ncnc(Oc5ccc(C(F)(F)F)cc5F)c4C3=O)cc2)n1 [Example 314, 4-(2-fluoro-4-(trifluoromethyl)phenoxy)-6-(4-(1-methyl-1H-pyrazol-3-yl)benzyl)-6,7-dihydro-5H-pyrrolo[3,4-d]pyrimidin-5-one]
2 | 50 | 95 | NC(=O)c1ccc(CN2Cc3cccc(Oc4ccc(C(F)(F)F)cc4F)c3C2=O)cc1F [Example 461, 2-fluoro-4-((7-(2-fluoro-4-(trifluoromethyl)phenoxy)-1-oxo-1,3-dihydro-2H-isoindol-2-yl)methyl)benzamide]
3 | 86 | 102 | C[C@@H](O)[C@@H](C)Oc1nccc2c1C(=O)N(Cc1c(F)cc(F)cc1F)C2 [Example 425, 4-(((2R,3R)-3-hydroxybutan-2-yl)oxy)-2-(2,4,6-trifluorobenzyl)-1,2-dihydro-3H-pyrrolo[3,4-c]pyridin-3-one]
4 | 23 | 108 | Cc1cc(-c2ccc(CN3Cc4ccnc(OCC5CCCO5)c4C3=O)cc2)cnn1 (centres unmarked) [Example 326, 2-(4-(6-methylpyridazin-4-yl)benzyl)-4-((tetrahydrofuran-2-yl)methoxy)-1,2-dihydro-3H-pyrrolo[3,4-c]pyridin-3-one]
5 | 69 | 101 | N#Cc1cccc(F)c1Oc1cccc2c1C(=O)N(Cc1ccc(-n3cccn3)cc1)C2 [Example 66, 3-fluoro-2-((3-oxo-2-(4-(1H-pyrazol-1-yl)benzyl)-2,3-dihydro-1H-isoindol-4-yl)oxy)benzonitrile]
6 | 7.3 | 102 | Cn1cnc(-c2ccc(CN3Cc4ccnc(Oc5ccc(C(F)(F)F)cc5F)c4C3=O)cc2)c1 [Example 419, 4-(2-fluoro-4-(trifluoromethyl)phenoxy)-2-(4-(1-methyl-1H-imidazol-4-yl)benzyl)-1,2-dihydro-3H-pyrrolo[3,4-c]pyridin-3-one]
7 | 27 | 89 | O=C1c2c(ncnc2Oc2ccc(C(F)(F)F)cc2F)CN1Cc1ccc(-c2ccnnc2)cc1 [Example 313, 4-(2-fluoro-4-(trifluoromethyl)phenoxy)-6-(4-(pyridazin-4-yl)benzyl)-6,7-dihydro-5H-pyrrolo[3,4-d]pyrimidin-5-one]
8 | 77 | 91 | Cc1cc(-c2ccc(CN3Cc4ccnc(Oc5c(C)cc(F)cc5F)c4C3=O)cc2)cnn1 [Example 358, 4-(2,4-difluoro-6-methylphenoxy)-2-(4-(6-methylpyridazin-4-yl)benzyl)-1,2-dihydro-3H-pyrrolo[3,4-c]pyridin-3-one]
9 | 69 | 103 | Cc1cc(C)c(Oc2nccc3c2C(=O)N(Cc2ccc(-c4ccn(C)n4)cc2)C3)c(F)c1 [Example 414, 4-(2-fluoro-4,6-dimethylphenoxy)-2-(4-(1-methyl-1H-pyrazol-3-yl)benzyl)-1,2-dihydro-3H-pyrrolo[3,4-c]pyridin-3-one]
10 | 48 | 106 | Cc1nn(C)cc1-c1ccc(CN2Cc3ccnc(O[C@@H]4CCC[C@H]4O)c3C2=O)cc1 (single isomer, unassigned) [Example 255, 2-(4-(1,3-dimethyl-1H-pyrazol-4-yl)benzyl)-4-((trans-2-hydroxycyclopentyl)oxy)-1,2-dihydro-3H-pyrrolo[3,4-c]pyridin-3-one]
11 | 8.5 | 91 | Cc1cc(-c2ccc(CN3Cc4ccnc(Oc5ccc(C(F)(F)F)cc5F)c4C3=O)cc2)cnn1 [Example 303, 4-(2-fluoro-4-(trifluoromethyl)phenoxy)-2-(4-(6-methylpyridazin-4-yl)benzyl)-1,2-dihydro-3H-pyrrolo[3,4-c]pyridin-3-one]
12 | 360 | 100 | O=C1c2c(cccc2O[C@H]2CCCC[C@@H]2O)CN1Cc1cccc(Br)c1 (relative stereo) [Example 48, 2-(3-bromobenzyl)-7-((trans-2-hydroxycyclohexyl)oxy)isoindolin-1-one]
13 | 10 | 101 | CNC(=O)c1ccc(CN2Cc3ccnc(Oc4ccc(C)cc4F)c3C2=O)cc1 [Example 433, 4-((4-(2-fluoro-4-methylphenoxy)-3-oxo-1,3-dihydro-2H-pyrrolo[3,4-c]pyridin-2-yl)methyl)-N-methylbenzamide]
14 | 77 | 98 | N#Cc1ccc(CN2Cc3cccc(O[C@H]4CCCC[C@@H]4O)c3C2=O)cc1 (relative stereo) [Example 33, 4-((7-((trans-2-hydroxycyclohexyl)oxy)-1-oxo-1,3-dihydro-2H-isoindol-2-yl)methyl)benzonitrile]
15 | 9.1 | 104 | Cn1cc(-c2ccc(CN3Cc4cccc(O[C@H]5CCCCC[C@@H]5O)c4C3=O)cc2)cn1 (relative stereo) [Example 3, 7-((trans-2-hydroxycycloheptyl)oxy)-2-(4-(1-methyl-1H-pyrazol-4-yl)benzyl)isoindolin-1-one]
16 | 56 | 97 | CCc1ccc(Oc2nccc3c2C(=O)N(Cc2ccc(C(=O)NC)nc2)C3)c(F)c1 [Example 453, 5-((4-(4-ethyl-2-fluorophenoxy)-3-oxo-1,3-dihydro-2H-pyrrolo[3,4-c]pyridin-2-yl)methyl)-N-methylpyridine-2-carboxamide]
17 | 17 | 104 | O=C1c2c(ccnc2OCC2CCCO2)CN1Cc1ccc(-n2cccn2)cc1F (centres unmarked) [Example 86, 2-(2-fluoro-4-(1H-pyrazol-1-yl)benzyl)-4-((tetrahydrofuran-2-yl)methoxy)-1,2-dihydro-3H-pyrrolo[3,4-c]pyridin-3-one]
18 | 37 | 113 | O=C1c2c(ccnc2OCC2CCCO2)CN1Cc1ccc(-n2cccn2)cc1 (centres unmarked) [Example 61, 2-(4-(1H-pyrazol-1-yl)benzyl)-4-((tetrahydrofuran-2-yl)methoxy)-1H-pyrrolo[3,4-c]pyridin-3(2H)-one]
19 | 4.4 | 94 | O=C1c2c(cccc2O[C@H]2CCCC[C@@H]2O)CN1Cc1ccc(-c2ccnnc2)cc1 (relative stereo) [Example 352, 7-((trans-2-hydroxycyclohexyl)oxy)-2-(4-(pyridazin-4-yl)benzyl)isoindolin-1-one]
20 | 16 | 104 | O=C1c2c(cc(F)cc2O[C@H]2CCCC[C@@H]2O)CN1Cc1ccc(-n2cccn2)cc1 (relative stereo) [Example 244, 5-fluoro-7-((trans-2-hydroxycyclohexyl)oxy)-2-(4-(1H-pyrazol-1-yl)benzyl)isoindolin-1-one]
21 | 30 | 102 | CNC(=O)c1ccc(CN2Cc3ccnc(Oc4ccc(C(F)(F)F)cc4F)c3C2=O)cc1F [Example 435, 2-fluoro-4-((4-(2-fluoro-4-(trifluoromethyl)phenoxy)-3-oxo-1,3-dihydro-2H-pyrrolo[3,4-c]pyridin-2-yl)methyl)-N-methylbenzamide]
22 | 38 | 107 | Cc1cc(-c2ccc(CN3Cc4cccc(O[C@H]5CCC[C@@H]5O)c4C3=O)cc2)ccn1 (relative stereo) [Example 224, 7-((trans-2-hydroxycyclopentyl)oxy)-2-(4-(2-methylpyridin-4-yl)benzyl)isoindolin-1-one]
